From patent publication US10350271B2, “Lipidated peptides for lowering blood glucose” (USTAV ORGANICKE CHEMIE A BIOCHEMIE AKADEMIE VED CR, V.V.I., priority 2014, dated 2019)
Square brackets hold non-standard residues; d marks the D form. Peptide text beside a SMILES is read from it. * marks the point of attachment. Phe(F5) = N[C@@H](Cc1c(F)c(F)c(F)c(F)c1F)C(=O)O; Palmitoyl = CCCCCCCCCCCCCCCC(=O)*; Myristoyl = CCCCCCCCCCCCCC(=O)*; Nle = CCCC[C@H](N)C(=O)O; Octanoyl = CCCCCCCC(=O)*

Legend:
rat PrRP receptor = biological target: T1, rat PrRP receptor (Rattus norvegicus, UniProt Q64121); experiment: Competitive binding in RC-4B/C rat pituitary cells (125I-rat PrRP31); details: for % of PrRP31, RC-4B/C rat pituitary cells: affinity relative to PrRP31
T1 construct: host or cells: RC-4B/C rat pituitary cell line
T1 sequence (Q64121 1-370): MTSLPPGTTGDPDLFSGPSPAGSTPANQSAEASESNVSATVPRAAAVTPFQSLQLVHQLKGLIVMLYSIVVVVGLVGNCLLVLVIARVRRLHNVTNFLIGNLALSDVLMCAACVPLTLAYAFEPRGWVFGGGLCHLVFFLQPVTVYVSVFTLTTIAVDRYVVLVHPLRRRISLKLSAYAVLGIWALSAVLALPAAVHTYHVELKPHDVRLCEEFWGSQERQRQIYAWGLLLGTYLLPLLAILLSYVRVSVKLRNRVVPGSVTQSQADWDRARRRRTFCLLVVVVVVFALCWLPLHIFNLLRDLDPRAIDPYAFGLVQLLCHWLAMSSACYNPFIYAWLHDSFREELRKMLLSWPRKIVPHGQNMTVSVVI
How it was run: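 Displacement of rat 125I-PrRP31 ([…]) by test analogs, 10^−11–10^−4 mol·l^−1, on whole RC-4B/C cells, 60 min RT. Bound counts measured by γ-counter in duplicate, ≥3 repeats, analyzed by nonlinear one-site binding regression.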

[1] = biological target: T2, human PrRP receptor GPR10 (Homo sapiens, UniProt P49683); experiment: Competitive binding in CHO cells transfected with human GPR10 (human 125I-PrRP31); details: for % of PrRP31, GPR10 human receptor transfected in CHO cells: affinity relative to PrRP31
T2 construct: host or cells: CHO cells
T2 sequence (P49683 1-370): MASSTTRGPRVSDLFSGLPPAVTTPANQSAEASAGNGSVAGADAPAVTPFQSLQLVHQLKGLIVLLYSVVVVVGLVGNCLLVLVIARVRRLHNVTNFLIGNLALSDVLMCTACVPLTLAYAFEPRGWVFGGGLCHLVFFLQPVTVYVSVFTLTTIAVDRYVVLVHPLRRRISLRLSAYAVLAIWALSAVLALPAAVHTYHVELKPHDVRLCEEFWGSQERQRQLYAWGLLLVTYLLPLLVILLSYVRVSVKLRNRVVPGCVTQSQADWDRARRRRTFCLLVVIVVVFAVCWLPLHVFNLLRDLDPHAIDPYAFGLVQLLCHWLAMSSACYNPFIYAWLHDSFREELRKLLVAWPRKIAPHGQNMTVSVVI
How it was run: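 Values from one-site nonlinear regression of displacement curves: analogs (final 10^-11 to 10^-4 mol·l^-1) competed with 125I-PrRP31 (final 5×10^-11 mol·l^-1) on adherent human GPR10 CHO cells. Binding ran 1 h at room temperature, pH 7.4 buffer with NaCl, MgCl2, CaCl2, glucose, BSA; cell-bound radioactivity counted after NaOH lysis.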

C57BL/6 mice = experiment: Food intake in fasted mice after SC injection; format: in vivo; details: 5 mg/kg SC, 45 min after injection
How it was run: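 Saline, PrRP or a lipidated analog was injected SC (1-10 mg/kg) after a 17 h fast with free water, animals housed singly.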

Structure (SMILES) | % of PrRP31, RC-4B/C rat pituitary cells (rat PrRP receptor) | % of PrRP31, GPR10 human receptor transfected in CHO cells [1] | Food intake in mice % of saline-treated group (C57BL/6 mice) | Ki ([1]; CHO cells, human 125I-PrRP31, read-out: Ki, GPR10 human receptor transfected in CHO cells) | Ki (rat PrRP receptor; RC-4B/C cells, displacement of 125I-rat PrRP31, read-out: Ki, RC-4B/C rat pituitary cells ^25I-rat PrRP31)
CCCCCCCCCCCCCCCC(=O)N[C@@H](CO)C(=O)N[C@@H](CCCNC(=N)N)C(=O)N[C@@H](C)C(=O)N[C@@H](Cc1c[nH]cn1)C(=O)N[C@@H](CCC(N)=O)C(=O)N[C@@H](Cc1c[nH]cn1)C(=O)N[C@@H](CO)C(=O)N[C@@H](CCCC)C(=O)N[C@@H](CCC(=O)O)C(=O)N[C@H](C(=O)N[C@@H](CCCNC(=N)N)C(=O)N[C@H](C(=O)N1CCC[C@H]1C(=O)N[C@@H](CC(=O)O)C(=O)N[C@H](C(=O)N[C@@H](CC(N)=O)C(=O)N1CCC[C@H]1C(=O)N[C@@H](C)C(=O)N[C@@H](Cc1c[nH]c2ccccc12)C(=O)N[C@@H](Cc1ccc(O)cc1)C(=O)N[C@H](C(=O)NCC(=O)N[C@@H](CCCNC(=N)N)C(=O)NCC(=O)N[C@H](C(=O)N[C@@H](CCCNC(=N)N)C(=O)N1CCC[C@H]1C(=O)N[C@H](C(=O)NCC(=O)N[C@@H](CCCNC(=N)N)C(=O)N[C@@H](Cc1c(F)c(F)c(F)c(F)c1F)C(N)=O)C(C)C)[C@@H](C)CC)[C@@H](C)O)[C@@H](C)CC)[C@@H](C)O)[C@@H](C)O [Analog 22] (Palmitoyl-SRAHQHS[Nle]ETRTPDINPAWYTGRGIRPVGR[Phe(F5)]-NH2) | 966% | 203% | 41% | – | –
CCCCCCCCCCCCCC(=O)N[C@@H](CO)C(=O)N[C@@H](CCCNC(=N)N)C(=O)N[C@@H](C)C(=O)N[C@@H](Cc1c[nH]cn1)C(=O)N[C@@H](CCC(N)=O)C(=O)N[C@@H](Cc1c[nH]cn1)C(=O)N[C@@H](CO)C(=O)N[C@@H](CCCC)C(=O)N[C@@H](CCC(=O)O)C(=O)N[C@H](C(=O)N[C@@H](CCCNC(=N)N)C(=O)N[C@H](C(=O)N1CCC[C@H]1C(=O)N[C@@H](CC(=O)O)C(=O)N[C@H](C(=O)N[C@@H](CC(N)=O)C(=O)N1CCC[C@H]1C(=O)N[C@@H](C)C(=O)N[C@@H](Cc1c[nH]c2ccccc12)C(=O)N[C@@H](Cc1ccc(O)cc1)C(=O)N[C@H](C(=O)NCC(=O)N[C@@H](CCCNC(=N)N)C(=O)NCC(=O)N[C@H](C(=O)N[C@@H](CCCNC(=N)N)C(=O)N1CCC[C@H]1C(=O)N[C@H](C(=O)NCC(=O)N[C@@H](CCCNC(=N)N)C(=O)N[C@@H](Cc1ccccc1)C(N)=O)C(C)C)[C@@H](C)CC)[C@@H](C)O)[C@@H](C)CC)[C@@H](C)O)[C@@H](C)O [Analog 7] (Myristoyl-SRAHQHS[Nle]ETRTPDINPAWYTGRGIRPVGRF-NH2) | 714% | 548% | 3% | – | –
CCCCCCCCCCCCCCCC(=O)N[C@@H](CO)C(=O)N[C@@H](CCCNC(=N)N)C(=O)N[C@@H](C)C(=O)N[C@@H](Cc1c[nH]cn1)C(=O)N[C@@H](CCC(N)=O)C(=O)N[C@@H](Cc1c[nH]cn1)C(=O)N[C@@H](CO)C(=O)N[C@@H](CCCC)C(=O)N[C@@H](CCC(=O)O)C(=O)N[C@H](C(=O)N[C@@H](CCCNC(=N)N)C(=O)N[C@H](C(=O)N1CCC[C@H]1C(=O)N[C@@H](CC(=O)O)C(=O)N[C@H](C(=O)N[C@@H](CC(N)=O)C(=O)N1CCC[C@H]1C(=O)N[C@@H](C)C(=O)N[C@@H](Cc1c[nH]c2ccccc12)C(=O)N[C@@H](Cc1ccc(O)cc1)C(=O)N[C@H](C(=O)NCC(=O)N[C@@H](CCCNC(=N)N)C(=O)NCC(=O)N[C@H](C(=O)N[C@@H](CCCNC(=N)N)C(=O)N1CCC[C@H]1C(=O)N[C@H](C(=O)NCC(=O)N[C@@H](CCCNC(=N)N)C(=O)N[C@@H](Cc1ccc(O)cc1)C(N)=O)C(C)C)[C@@H](C)CC)[C@@H](C)O)[C@@H](C)CC)[C@@H](C)O)[C@@H](C)O [Analog 24] (Palmitoyl-SRAHQHS[Nle]ETRTPDINPAWYTGRGIRPVGRY-NH2) | 1120% | 248% | 22% | – | –
CCCCCCCCCCCCCC(=O)N[C@H](C(=O)N1CCC[C@H]1C(=O)N[C@@H](CC(=O)O)C(=O)N[C@H](C(=O)N[C@@H](CC(N)=O)C(=O)N1CCC[C@H]1C(=O)N[C@@H](C)C(=O)N[C@@H](Cc1c[nH]c2ccccc12)C(=O)N[C@@H](Cc1ccc(O)cc1)C(=O)N[C@H](C(=O)NCC(=O)N[C@@H](CCCNC(=N)N)C(=O)NCC(=O)N[C@H](C(=O)N[C@@H](CCCNC(=N)N)C(=O)N1CCC[C@H]1C(=O)N[C@H](C(=O)NCC(=O)N[C@@H](CCCNC(=N)N)C(=O)N[C@@H](Cc1ccccc1)C(N)=O)C(C)C)[C@@H](C)CC)[C@@H](C)O)[C@@H](C)CC)[C@@H](C)O [Analog 1] (Myristoyl-TPDINPAWYTGRGIRPVGRF-NH2) | 632% | 133% | 32% | 2.93 ± 0.2 nM | –
CCCCCCCC(=O)N[C@@H](CO)C(=O)N[C@@H](CCCNC(=N)N)C(=O)N[C@@H](C)C(=O)N[C@@H](Cc1c[nH]cn1)C(=O)N[C@@H](CCC(N)=O)C(=O)N[C@@H](Cc1c[nH]cn1)C(=O)N[C@@H](CO)C(=O)N[C@@H](CCCC)C(=O)N[C@@H](CCC(=O)O)C(=O)N[C@H](C(=O)N[C@@H](CCCNC(=N)N)C(=O)N[C@H](C(=O)N1CCC[C@H]1C(=O)N[C@@H](CC(=O)O)C(=O)N[C@H](C(=O)N[C@@H](CC(N)=O)C(=O)N1CCC[C@H]1C(=O)N[C@@H](C)C(=O)N[C@@H](Cc1c[nH]c2ccccc12)C(=O)N[C@@H](Cc1ccc(O)cc1)C(=O)N[C@H](C(=O)NCC(=O)N[C@@H](CCCNC(=N)N)C(=O)NCC(=O)N[C@H](C(=O)N[C@@H](CCCNC(=N)N)C(=O)N1CCC[C@H]1C(=O)N[C@H](C(=O)NCC(=O)N[C@@H](CCCNC(=N)N)C(=O)N[C@@H](Cc1ccccc1)C(N)=O)C(C)C)[C@@H](C)CC)[C@@H](C)O)[C@@H](C)CC)[C@@H](C)O)[C@@H](C)O [Analog 4] (Octanoyl-SRAHQHS[Nle]ETRTPDINPAWYTGRGIRPVGRF-NH2) | 503% | 254% | 94% | – | –
CCCCCCCCCCCCCC(=O)N[C@@H](CO)C(=O)N[C@@H](CCCNC(=N)N)C(=O)N[C@H](C(=O)N[C@@H](Cc1c[nH]cn1)C(=O)N[C@@H](CCCNC(=N)N)C(=O)N[C@@H](Cc1c[nH]cn1)C(=O)N[C@@H](CO)C(=O)N[C@@H](CCSC)C(=O)N[C@@H](CCC(=O)O)C(=O)N[C@H](C(=O)N[C@@H](CCCNC(=N)N)C(=O)N[C@H](C(=O)N1CCC[C@H]1C(=O)N[C@@H](CC(=O)O)C(=O)N[C@H](C(=O)N[C@@H](CC(N)=O)C(=O)N1CCC[C@H]1C(=O)N[C@@H](C)C(=O)N[C@@H](Cc1c[nH]c2ccccc12)C(=O)N[C@@H](Cc1ccc(O)cc1)C(=O)N[C@@H](C)C(=O)N[C@@H](CO)C(=O)N[C@@H](CCCNC(=N)N)C(=O)NCC(=O)N[C@H](C(=O)N[C@@H](CCCNC(=N)N)C(=O)N1CCC[C@H]1C(=O)N[C@H](C(=O)NCC(=O)N[C@@H](CCCNC(=N)N)C(=O)N[C@@H](Cc1ccccc1)C(N)=O)C(C)C)[C@@H](C)CC)[C@@H](C)CC)[C@@H](C)O)[C@@H](C)CC)[C@@H](C)O [Analog 42] | 1027% | 83% | 10% | – | 0.48 ± 0.18 nM
